{"source": "patent US20100212666A1", "about": "(priority 2006, published 2010)", "origin": "cited, not measured here", "settings": "in vivo"}
{"smiles": "CC(C)c1cccc(C(C)C)c1O", "note": "[propofol]", "values": [{"measurement": "Effect on resting ventilation at 1 C50 for respiratory depression", "result": "minimally depresses resting ventilation"}, {"measurement": "Sedation at 1 C50 for respiratory depression", "result": "adequate sedation"}]}
